This note sets out measurements from the Biogen ADME set (Fang et al. 2023).

Values after ≈ are worked out from the molar mass of the structure shown.

The conditions of the series: for aqueous solubility: pH 6.8.

As usually defined, the aqueous solubility is how much of the substance goes into solution per volume. Low readings indicate a poorly soluble substance, high ones a readily soluble substance. On to `Cc1cc(CCCC(=O)NC[C@H]2CC[C@H](c3ccc(C(N)=O)c(C)n3)CC2)ccc1F`, for which the MDR1-MDCK efflux ratio stood at 33.3; the intrinsic clearance, human liver microsomes was 214 mL/min/kg; the intrinsic clearance, rat liver microsomes was 808 mL/min/kg; the aqueous solubility is 3.18 µg/mL (≈ 7.47 µM).
For `O=C1CCCN1CCCc1nc(Cc2c(Cl)cccc2Cl)n[nH]1`, the MDR1-MDCK efflux ratio stood at 78.4; the intrinsic clearance, human liver microsomes came to 46.1 mL/min/kg; the intrinsic clearance, rat liver microsomes was found to be 381 mL/min/kg.
With `O=C(Cc1ccc(F)cc1)NCCn1cccnc1=O`, the MDR1-MDCK efflux ratio was 9.23; the intrinsic clearance, human liver microsomes was no more than 4.74 mL/min/kg; the intrinsic clearance, rat liver microsomes amounted to 22.7 mL/min/kg; the aqueous solubility is 63.3 µg/mL (≈ 230 µM).
As to `Cc1ccc(C(=O)NC[C@H]2Cn3ccnc3CO2)cc1`, the MDR1-MDCK efflux ratio was determined as 7.94; the intrinsic clearance, human liver microsomes is no more than 4.74 mL/min/kg; the intrinsic clearance, rat liver microsomes was no more than 10.7 mL/min/kg; the aqueous solubility is 30.4 µg/mL (≈ 112 µM).
In the case of `N#Cc1cc(N2CC(CO)C2)nc2ccc(Cl)cc12`, the intrinsic clearance, human liver microsomes came to 68.9 mL/min/kg and the intrinsic clearance, rat liver microsomes amounted to 121 mL/min/kg.
For the molecule `Cc1cccc([C@H]2CN(C(=O)C3CCCC3)[C@@H]3CCN(CC4CC4)C[C@H]23)c1`, the MDR1-MDCK efflux ratio was 1.86; the intrinsic clearance, human liver microsomes was 555 mL/min/kg; the intrinsic clearance, rat liver microsomes worked out at 2330 mL/min/kg.
Turning to `CN(c1ncc(Br)cn1)C1CCS(=O)CC1` (stereo unspecified), the MDR1-MDCK efflux ratio was determined as 0.943; the intrinsic clearance, human liver microsomes was no more than 4.74 mL/min/kg; the intrinsic clearance, rat liver microsomes worked out at 25.7 mL/min/kg; the aqueous solubility came to 76.3 µg/mL (≈ 251 µM).
As to `c1ccc2nc(NCCn3ccnc3)cnc2c1`, the MDR1-MDCK efflux ratio turned out to be 3.5; the intrinsic clearance, human liver microsomes is 8.75 mL/min/kg; the intrinsic clearance, rat liver microsomes is 441 mL/min/kg.
`O=C(CN1C(=O)CCC1=O)Nc1ccc(F)c(F)c1F` displayed an aqueous solubility of 50 µg/mL (≈ 175 µM).
In the case of `CN(C)C1(CNC(=O)Cn2ccc(=O)cc2)CCCCC1`, the MDR1-MDCK efflux ratio came out at 0.273; the intrinsic clearance, human liver microsomes stood at 5.3 mL/min/kg; the intrinsic clearance, rat liver microsomes amounted to 16.1 mL/min/kg.
Consider `CCOc1ncccc1-c1cc(Cl)ccc1O`, for which the MDR1-MDCK efflux ratio was found to be 0.595; the intrinsic clearance, human liver microsomes is 59.9 mL/min/kg; the intrinsic clearance, rat liver microsomes stood at 654 mL/min/kg; the aqueous solubility stood at 22.7 µg/mL (≈ 90.9 µM).
As for `O=C(CCn1ccc2ccccc21)N1CCC(n2c(=O)[nH]c3ccccc32)CC1`, the intrinsic clearance, human liver microsomes came to 269 mL/min/kg and the intrinsic clearance, rat liver microsomes is 5450 mL/min/kg.
In the case of `CC(C)(C)c1csc(CCNC(=O)N2CCSCC2)n1`, the MDR1-MDCK efflux ratio was 1.14; the intrinsic clearance, human liver microsomes was found to be 127 mL/min/kg; the intrinsic clearance, rat liver microsomes came to 956 mL/min/kg; the aqueous solubility came to 69.1 µg/mL (≈ 220 µM).
With `COc1ccc(OCC(=O)Nc2cccc(Cl)c2N2CCN(C(C)=O)CC2)cc1`, the MDR1-MDCK efflux ratio amounted to 1.09; the fraction unbound, human plasma is 0.0502; the intrinsic clearance, human liver microsomes turned out to be 181 mL/min/kg; the intrinsic clearance, rat liver microsomes amounted to 3350 mL/min/kg. The molecule also came in with an aqueous solubility of 4.7 µg/mL (≈ 11.2 µM).
Turning to `Cc1cccc(N2CCN(CCCCNC(=O)c3c(F)cccc3F)CC2)c1`, the MDR1-MDCK efflux ratio is 1.22; the intrinsic clearance, human liver microsomes was 76.3 mL/min/kg; the intrinsic clearance, rat liver microsomes worked out at 510 mL/min/kg.
On to `Cc1cc(CNc2cc(C(=O)N(C)C)ccn2)sc1Br`, for which the MDR1-MDCK efflux ratio was 0.744; the intrinsic clearance, human liver microsomes worked out at 36.2 mL/min/kg; the intrinsic clearance, rat liver microsomes amounted to 799 mL/min/kg; the aqueous solubility was determined as 47.3 µg/mL (≈ 134 µM).
For `COc1ccc(OC)c(S(=O)(=O)Nc2cccc(CCc3ccccn3)c2)c1`, in that order: 4.21, 582 mL/min/kg, 3140 mL/min/kg and 39.8 µg/mL (≈ 99.8 µM).
Regarding `O=C1CSc2ccc(C(=O)Nc3cc(C4CC4)n[nH]3)cc2N1`, the intrinsic clearance, human liver microsomes stood at 8.23 mL/min/kg; the intrinsic clearance, rat liver microsomes was determined as 241 mL/min/kg; the aqueous solubility stood at 4.31 µg/mL (≈ 13.7 µM).
Consider `CCc1nnc(Sc2nc3cc(C)nn3c3ccccc23)[nH]1`, for which the MDR1-MDCK efflux ratio was found to be 1.21; the intrinsic clearance, human liver microsomes amounted to 13.7 mL/min/kg; the intrinsic clearance, rat liver microsomes came to 139 mL/min/kg.
Regarding `O=C(CSc1ncn[nH]1)N(C1CCCCC1)C1CCCCC1`, the MDR1-MDCK efflux ratio worked out at 2.57; the intrinsic clearance, human liver microsomes was 120 mL/min/kg; the intrinsic clearance, rat liver microsomes turned out to be 1410 mL/min/kg; the aqueous solubility stood at 35.7 µg/mL (≈ 111 µM).
Turning to `CCC(=O)N1CCN(c2ccc(Cl)cc2NC(=O)COc2ccccc2)CC1`, the MDR1-MDCK efflux ratio is 0.871; the fraction unbound, human plasma amounted to 0.0178; the intrinsic clearance, human liver microsomes came out at 88.4 mL/min/kg; the intrinsic clearance, rat liver microsomes is 1840 mL/min/kg.
Take `Cc1nccc(-c2cccc(-n3ccnc3C(C)C)c2)n1`: the MDR1-MDCK efflux ratio came out at 1.45; the intrinsic clearance, human liver microsomes was 35.4 mL/min/kg; the intrinsic clearance, rat liver microsomes worked out at 500 mL/min/kg; the aqueous solubility was 40.4 µg/mL (≈ 145 µM).
For the molecule `COc1cc(OC)cc(N2CCC(NCC3(C)CCOCC3)CC2)c1`, the MDR1-MDCK efflux ratio was 1.55; the intrinsic clearance, human liver microsomes is no more than 4.74 mL/min/kg; the intrinsic clearance, rat liver microsomes was 58.2 mL/min/kg.
For `Cc1nn(C)c(C)c1C(=O)NCc1ccccc1`, the MDR1-MDCK efflux ratio was determined as 0.786; the intrinsic clearance, human liver microsomes was no more than 4.74 mL/min/kg; the intrinsic clearance, rat liver microsomes is no more than 10.7 mL/min/kg; the aqueous solubility turned out to be 54.7 µg/mL (≈ 225 µM).
`CNc1cc(CC2CCNCC2)ncn1` registered an aqueous solubility of 30.6 µg/mL (≈ 148 µM).
In the case of `CCCN(C(=O)c1ccc(COC)o1)c1nc2c(s1)CCc1c-2cnn1C`, the intrinsic clearance, human liver microsomes came out at 75.6 mL/min/kg and the intrinsic clearance, rat liver microsomes is 89 mL/min/kg.
With `Cc1cc(-c2cn(C)nc2[C@H]2CC[C@H](CNC(=O)C(C)C)CC2)on1`, the MDR1-MDCK efflux ratio was found to be 30.3; the intrinsic clearance, human liver microsomes is no more than 4.74 mL/min/kg; the intrinsic clearance, rat liver microsomes turned out to be 268 mL/min/kg.
Taken in the same sequence, the figures for `CCCc1cc(O)nc(SCC(=O)N2CCN(C)CC2)n1` were 23.9, no more than 4.74 mL/min/kg and no more than 10.7 mL/min/kg.
Take `Cc1ncsc1CNc1nnc(-c2ccncc2)o1`: the MDR1-MDCK efflux ratio stood at 3.75; the intrinsic clearance, human liver microsomes was found to be 8.9 mL/min/kg; the intrinsic clearance, rat liver microsomes came out at 61.5 mL/min/kg.
As to `COc1nc(C)nc(N(C)Cc2nccs2)c1C`, the MDR1-MDCK efflux ratio came to 0.467; the intrinsic clearance, human liver microsomes stood at 131 mL/min/kg; the intrinsic clearance, rat liver microsomes turned out to be 508 mL/min/kg; the aqueous solubility turned out to be 29.8 µg/mL (≈ 113 µM).
For `CC(C)c1ccc(-c2cc3c(=O)n(CCC(=O)NCCN(C)C)ccn3n2)cc1`, in that order: 86.7, 182 mL/min/kg, 142 mL/min/kg and 55.7 µg/mL (≈ 141 µM).
`O=C(c1cc2ccccc2[nH]1)N1C[C@@H](O)[C@H](N2CCOCC2)C1`: the MDR1-MDCK efflux ratio worked out at 0.428; the intrinsic clearance, human liver microsomes is no more than 4.74 mL/min/kg; the intrinsic clearance, rat liver microsomes is 17.6 mL/min/kg; the aqueous solubility turned out to be 45.6 µg/mL (≈ 145 µM).
For the molecule `Cc1cc(C(=O)N(C)C2CCSCC2)c(=O)n(C)c1C`, the MDR1-MDCK efflux ratio was 39; the intrinsic clearance, human liver microsomes turned out to be 29.1 mL/min/kg; the intrinsic clearance, rat liver microsomes worked out at 56.4 mL/min/kg.
Regarding `O=C(O)CCn1c2ccccc2c2ccccc21`, the MDR1-MDCK efflux ratio was 0.809; the intrinsic clearance, human liver microsomes is no more than 4.74 mL/min/kg; the intrinsic clearance, rat liver microsomes amounted to 11.4 mL/min/kg; the aqueous solubility was determined as 52 µg/mL (≈ 217 µM).
As for `O=c1c(-n2ccnn2)c[nH]n1-c1cc(N2CCOCC2)ncn1`, the MDR1-MDCK efflux ratio worked out at 1.76; the intrinsic clearance, human liver microsomes is no more than 4.74 mL/min/kg; the intrinsic clearance, rat liver microsomes was determined as 45.8 mL/min/kg; the aqueous solubility turned out to be 30.7 µg/mL (≈ 97.7 µM).
Taken in the same sequence, the figures for `O=C(NC1CCCCCC1)c1ccc(CSc2nc3ccccc3[nH]2)cc1` were 2.99, 161 mL/min/kg, 1900 mL/min/kg and 2.71 µg/mL (≈ 7.14 µM).
For `Cc1cccc(NC2CCN(Cc3ccncc3)CC2)n1`, in that order: 0.496, 18.6 mL/min/kg, 238 mL/min/kg and 37.6 µg/mL (≈ 133 µM).
`CSCc1c(C(=O)NC(C)C)oc2ccccc12`: the MDR1-MDCK efflux ratio is 0.636; the intrinsic clearance, human liver microsomes came out at 85.1 mL/min/kg; the intrinsic clearance, rat liver microsomes stood at 367 mL/min/kg; the aqueous solubility is 27.9 µg/mL (≈ 106 µM).
With `CC1(C)CCN(C(=O)NCCOc2cccnc2)C1`, the MDR1-MDCK efflux ratio came out at 3.33; the intrinsic clearance, human liver microsomes was no more than 4.74 mL/min/kg; the intrinsic clearance, rat liver microsomes was 47.9 mL/min/kg; the aqueous solubility is 39.8 µg/mL (≈ 151 µM).
Turning to `N#C/C(=C\c1ccc(O)c(O)c1)C(=O)NCc1ccccc1`, the aqueous solubility is 42.5 µg/mL (≈ 145 µM).
On to `CN(C[C@@H]1COCCO1)S(=O)(=O)Nc1ccc2ccc3ncc(-c4cnn(C)c4)cc3c(=O)c2c1`, for which the MDR1-MDCK efflux ratio was 15.5; the intrinsic clearance, human liver microsomes was 44.3 mL/min/kg; the intrinsic clearance, rat liver microsomes was determined as 219 mL/min/kg; the aqueous solubility came to 3.36 µg/mL (≈ 6.78 µM).
As for `COc1cc(OC)c(OC)cc1CNC(C)(C)C`, the MDR1-MDCK efflux ratio was determined as 4.78; the intrinsic clearance, human liver microsomes was no more than 4.74 mL/min/kg; the intrinsic clearance, rat liver microsomes is 110 mL/min/kg.
For the molecule `Cc1cc(C)c(S(=O)(=O)Nc2ccc(N(C)C)cc2)c(C)c1-n1cnnn1`, the MDR1-MDCK efflux ratio was 9.73; the intrinsic clearance, human liver microsomes worked out at 118 mL/min/kg; the intrinsic clearance, rat liver microsomes turned out to be 89.2 mL/min/kg; the aqueous solubility was found to be 2.73 µg/mL (≈ 7.06 µM).
With `CCC1(O)CN(c2ncccc2C#N)C1`, the MDR1-MDCK efflux ratio turned out to be 0.523; the intrinsic clearance, human liver microsomes was no more than 4.74 mL/min/kg; the intrinsic clearance, rat liver microsomes came out at 25 mL/min/kg; the aqueous solubility amounted to 22.7 µg/mL (≈ 112 µM).
Taken in the same sequence, the figures for `CC(C)c1cc(N2CCc3[nH]nc(C4CC4)c3C2)n2nccc2n1` were 6.42, 70.4 mL/min/kg, 381 mL/min/kg and 23.8 µg/mL (≈ 73.7 µM).
As for `O=C(NC1CCCC1)C1=CCN(C(=O)C2CC2)C1`, the MDR1-MDCK efflux ratio came to 5.2; the intrinsic clearance, human liver microsomes was no more than 4.74 mL/min/kg; the intrinsic clearance, rat liver microsomes was 37.3 mL/min/kg.
